Values after ≈ are worked out from the molar mass of the structure shown.
Legend:
PBMC = assay: Cytotoxicity against PBMC (unknown origin) assessed as reduction in cell viability after 72 hrs by MTT assay; assay type: cell-based; settings: Homo sapiens
[1] = Selectivity index, ratio of IC50 for PBMC (unknown origin) to MIC for Mycobacterium tuberculosis H37Rv ATCC 27294
[2] = tested on: Mycobacterium tuberculosis; assay: Anti-mycobacterial activity against Mycobacterium tuberculosis H37Rv ATCC 27294 assessed as inhibition of microbial growth incubated for 5 days by MABA method; assay type: functional; settings: H37Rv ATCC 27294, 120 h
[3] = Selectivity index, ratio of IC50 for mouse RAW264.7 cells to MIC for Mycobacterium tuberculosis H37Rv ATCC 27294; assay type: toxicity; settings: read-out: Selectivity Index
RAW264.7 = assay: Cytotoxicity against mouse RAW264.7 cells assessed as reduction in cell viability after 72 hrs by MTT assay; assay type: cell-based; settings: RAW264.7, 72 h

SMILES	IC50 (PBMC) [µg/mL]	Selectivity Index [1]	MIC [2] [µM]	selectivity ratio [3]	IC50 (RAW264.7) [µg/mL]
O=C(N/N=C/c1cn(Cc2cc(-c3ccccc3)cnc2N2CCSCC2)nn1)c1ccc(C(F)(F)F)cc1	188 (≈ 341 µM)	120	2.8	189	296 (≈ 537 µM)
O=C(N/N=C/c1cn(Cc2cc(-c3ccccc3)cnc2Cl)nn1)c1ccc(F)cc1	357 (≈ 821 µM)	228	3.6	97	152 (≈ 350 µM)
Cc1cnc(N2CCSCC2)c(Cn2cc(C=O)nn2)c1	–	–	10.3	–	–
Cc1ccc(-c2cnc(N3CCSCC3)c(Cn3cc(/C=N/NC(=O)c4ccc(C(F)(F)F)cc4)nn3)c2)cc1	> 400	>128	5.4	104	326 (≈ 576 µM)
Cc1ccc(-c2cnc(N3CCOCC3)c(Cn3cc(/C=N/NC(=O)c4ccc(C(F)(F)F)cc4)nn3)c2)cc1	–	–	91.1	–	–
Cc1cnc(N2CCSCC2)c(Cn2cc(/C=N/NC(=O)c3ccc(C(F)(F)F)cc3)nn2)c1	350 (≈ 715 µM)	224	3.2	136	212 (≈ 433 µM)
Cc1cnc(Cl)c(Cn2cc(/C=N/NC(=O)c3ccc(C(F)(F)F)cc3)nn2)c1	337 (≈ 797 µM)	216	3.7	165	258 (≈ 610 µM)
Cc1cnc(Cl)c(Cn2cc(C=O)nn2)c1	–	–	13.3	–	–
O=C(N/N=C/c1cn(Cc2cc(-c3ccccc3)cnc2N2CCSCC2)nn1)c1ccc(F)cc1	> 400	>128	6.2	60	188 (≈ 375 µM)
Cc1ccc(-c2cnc(N3CCSCC3)c(Cn3cc(C=O)nn3)c2)cc1	–	–	33.1	–	–
Cc1cnc(N2CCSCC2)c(Cn2cc(/C=N/NC(=O)c3ccc(F)cc3)nn2)c1	–	–	28.5	–	–
O=C(N/N=C/c1cn(Cc2cc(-c3ccc(F)cc3)cnc2Cl)nn1)c1ccc(C(F)(F)F)cc1	–	–	12.5	–	–
O=C(N/N=C/c1cn(Cc2cc(-c3ccccc3)cnc2N2CCOCC2)nn1)c1ccc(C(F)(F)F)cc1	–	–	23.3	–	–
NNC(=O)c1ccncc1 [ISONIAZID]	169 (≈ 1230 µM)	–	2.6	–	> 400
O=C(N/N=C/c1cn(Cc2cc(-c3ccccc3)cnc2N2CCOCC2)nn1)c1ccc(F)cc1	–	–	12.9	–	–
Cc1ccc(-c2cnc(Cl)c(Cn3cc(C=O)nn3)c2)cc1	–	–	40.1	–	–
O=C(O)c1cn(C2CC2)c2cc(N3CCNCC3)c(F)cc2c1=O [CIPROFLOXACIN]	–	–	12.6	–	–

SMILES	IC50 (PBMC) [µg/mL]	Selectivity Index [1]	MIC [2] [µM]	selectivity ratio [3]	IC50 (RAW264.7) [µg/mL]
O=Cc1cn(Cc2cc(-c3ccccc3)cnc2N2CCOCC2)nn1	–	–	4.5	–	–
O=C(N/N=C/c1cn(Cc2cc(-c3ccc(F)cc3)cnc2Cl)nn1)c1ccc(F)cc1	–	–	13.8	–	–
Cc1ccc(-c2cnc(Cl)c(Cn3cc(/C=N/NC(=O)c4ccc(C(F)(F)F)cc4)nn3)c2)cc1	–	–	50.2	–	–
Cc1cnc(Cl)c(Cn2cc(/C=N/NC(=O)c3ccc(F)cc3)nn2)c1	–	–	33.6	–	–
Cc1ccc(-c2cnc(Cl)c(Cn3cc(/C=N/NC(=O)c4ccc(F)cc4)nn3)c2)cc1	–	–	27.9	–	–
Cc1cnc(N2CCOCC2)c(Cn2cc(C=O)nn2)c1	–	–	21.8	–	–
Cc1cnc(N2CCOCC2)c(Cn2cc(/C=N/NC(=O)c3ccc(F)cc3)nn2)c1	–	–	59.1	–	–
O=Cc1cn(Cc2cc(-c3ccccc3)cnc2N2CCSCC2)nn1	–	–	8.6	–	–
Cc1ccc(-c2cnc(N3CCOCC3)c(Cn3cc(C=O)nn3)c2)cc1	–	–	4.3	–	–
Cc1cnc(N2CCOCC2)c(Cn2cc(/C=N/NC(=O)c3ccc(C(F)(F)F)cc3)nn2)c1	–	–	26.4	–	–
Cc1ccc(-c2cnc(N3CCOCC3)c(Cn3cc(/C=N/NC(=O)c4ccc(F)cc4)nn3)c2)cc1	–	–	100	–	–
CC[C@@H](CO)NCCN[C@@H](CC)CO [ETHAMBUTOL]	–	–	15.3	–	–
O=Cc1cn(Cc2cc(-c3ccccc3)cnc2Cl)nn1	–	–	5.2	–	–
O=C(N/N=C/c1cn(Cc2cc(-c3ccccc3)cnc2Cl)nn1)c1ccc(C(F)(F)F)cc1	282 (≈ 582 µM)	180	3.2	200	313 (≈ 646 µM)
Cc1ccc(-c2cnc(N3CCSCC3)c(Cn3cc(/C=N/NC(=O)c4ccc(F)cc4)nn3)c2)cc1	–	–	97.1	–	–
O=Cc1cn(Cc2cc(-c3ccc(F)cc3)cnc2Cl)nn1	–	–	19.8	–	–
